From patent EP2119770B1, “Production of alpha-oxyfunctionalized carbonyl compounds” (priority 2008, dated 2009)

What was measured:
Assay type in all cases: biochemical
Gox0313 = target: T1, Gox0313 (Gluconobacter oxydans, UniProt Q5FU50); assay: Enzyme activity assay (rate of NAD(P)H decrease at 340 nm), Gox0313; conditions: Tab. 6, Gox0313; substrate reduction, cofactor NADH; 10 mM substrate, pH 7.0, 30 °C
T1 sequence (Q5FU50 1-343): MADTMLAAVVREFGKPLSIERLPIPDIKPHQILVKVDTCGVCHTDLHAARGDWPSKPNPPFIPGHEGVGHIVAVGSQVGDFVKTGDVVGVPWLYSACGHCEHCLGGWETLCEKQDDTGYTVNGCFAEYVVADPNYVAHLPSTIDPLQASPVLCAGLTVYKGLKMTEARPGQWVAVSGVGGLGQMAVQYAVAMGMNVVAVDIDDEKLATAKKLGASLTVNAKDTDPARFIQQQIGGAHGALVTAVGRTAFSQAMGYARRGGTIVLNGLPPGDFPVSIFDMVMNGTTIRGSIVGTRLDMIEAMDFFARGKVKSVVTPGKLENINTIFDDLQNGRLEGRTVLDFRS
Method: (§1) Measurment of enzyme activity: NADPH-dependent alpha-ketocarbonyl reductases were assayed by a routine method used for NAD(P)-linked enzymes by recording the rate of decrease of NADPH at 340 nm (ε = 6.22 mM^-1 x cm^-1)) with substrates at 30 °C. The reaction mixture (1 ml) for reduction of alpha-ketocarbonyl substrates contained 10 mM substrate, 40 mM potassium phosphate buffer pH 7.0, 0.025 mM NAD(P)H , and the enzyme. Reactions were induced by addition of enzyme or substrate. One unit of enzyme activity was defined as the amount of enzyme catalyzing the conversion of 1 µmol of pyridine nucleotide per min at 30 °C.
(§2) NADPH-dependent α-ketocarbonyl reductases were assayed by a routine method used for NAD(P)-linked enzymes by recording the rate of decrease of NADPH at 340 nm (ε = 6.22 mM^-1.cm^-1) with substrates at 30 °C. The reaction mixture (1 ml) for reduction of alpha-ketocarbonyl substrates contained 10 mM substrate, 40 mM potassium phosphate buffer pH 7.0, 0.025 mM NADPH , and the enzyme. Reactions were induced by addition of enzyme or substrate. One unit of enzyme activity was defined as the amount of enzyme catalyzing the conversion of 1 µmol of pyridine nucleotide per min at 30 °C.
(§3) For each enzyme (Gox0313, Gox0502, Gox0644, Gox0646, Gox1615, Gox2107, and Gox2684 respectively), fresh enzyme preparations were used to validate the substrate spectrum and the kinetic activity. […] Purified NAD(P)-dependent oxidoreductases were assayed at 30 °C by a routine method used for NAD(P)-linked enzymes by recording the rate of decrease of NAD(P)H at 340 nm (ε = […]) with substrates capable of reduction reactions. The standard reaction mixture (1 ml) for the reduction reactions of substrates contained 10 mM substrate, 40 mM potassium phosphate buffer (K-phosphate buffer) pH 7.0, 0.05 mM NAD(P)H, and the enzyme unless otherwise noted. Reactions were induced by addition of enzyme or substrate. One unit of enzyme activity was defined as the amount of enzyme catalyzing the conversion of 1 µmol of pyridine nucleotide per min at 30 °C. Measurement of the protein content was performed by the method of Bradford in Anal. Biochem. 72:248-254 (1976). Table 3: Summary of enzymatic activities with α-diketones, α-ketoaldehydes and /or α-ketoesters

Gox1615 = target: T2, Gox1615 (Gluconobacter oxydans, UniProt Q5FQJ0); assay: Enzyme activity assay (rate of NAD(P)H decrease at 340 nm), Gox1615; conditions: Tab. 5, Gox1615; cofactor NADPH; 10 mM substrate, pH 7.0, 30 °C
T2 sequence (Q5FQJ0 1-332): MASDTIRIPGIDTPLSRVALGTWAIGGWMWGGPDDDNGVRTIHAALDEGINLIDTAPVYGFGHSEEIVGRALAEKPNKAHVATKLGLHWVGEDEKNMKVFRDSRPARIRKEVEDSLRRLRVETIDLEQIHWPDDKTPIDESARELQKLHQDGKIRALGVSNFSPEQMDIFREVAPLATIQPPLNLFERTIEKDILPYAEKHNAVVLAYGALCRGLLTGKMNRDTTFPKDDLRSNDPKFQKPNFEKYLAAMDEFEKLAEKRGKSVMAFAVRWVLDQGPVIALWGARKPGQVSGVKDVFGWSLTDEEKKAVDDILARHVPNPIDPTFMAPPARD
Method: as §1, §2, §3

Gox2107 = Gox2107 (Gluconobacter oxydans, UniProt Q5FP53); assay: Enzyme activity assay (rate of NAD(P)H decrease at 340 nm), Gox2107; conditions: Gox2107; NADH compared with the preferred NADPH (data not shown)
Method: as §1, §2, §3

Gox0644 = Gox0644 (Gluconobacter oxydans, UniProt Q5FT75); assay: Enzyme activity assay (rate of NAD(P)H decrease at 340 nm), Gox0644; conditions: for reduction by Gox0644 (result in words): NADPH; for Specific Activity: Tab. 4, Gox0644, cofactor NADPH, 10 mM substrate, pH 7.0, 30 °C
Method: (§4) Reactions were induced by addition of enzyme or substrate. One unit of enzyme activity was defined as the amount of enzyme catalyzing the conversion of 1 µmol of pyridine nucleotide per min at 30 °C.
as §4
For each enzyme (Gox0313, Gox0502, Gox0644, Gox0646, Gox1615, Gox2107, and Gox2684 respectively), fresh enzyme preparations were used to validate the substrate spectrum and the kinetic activity. […] Reactions were induced by addition of enzyme or substrate. One unit of enzyme activity was defined as the amount of enzyme catalyzing the conversion of 1 µmol of pyridine nucleotide per min at 30 °C. […] Table 3: Summary of enzymatic activities with α-diketones, α-ketoaldehydes and /or α-ketoesters

Compound	Specific Activity (Gox0313) [U/mg]	Specific Activity (Gox1615) [U/mg]	also measured
O=CC(O)CO (racemic) [DL-glyceraldehyde]	1.2	19	
CCCC(C)C=O (stereo not drawn) [2-methylvaleraldehyde]		13.4	
CC(=O)C=CC(C)C [5-methyl-3-hexen-2-one]		0.3	
NC(=O)C1=CN([C@@H]2O[C@H](COP(=O)(O)OP(=O)(O)OC[C@H]3O[C@@H](n4cnc5c(N)ncnc54)[C@H](O)[C@@H]3O)[C@@H](O)[C@H]2O)C=CC1 [NADH]			decrease in activity with NADH (Gox2107): 7.5 fold
CCCCCCCCC=O [Nonal]	4.4	9.3	
CC=O [acetaldehyde]	61.0		
CC(=O)C(C)O (stereo not drawn) [acetoin]	10.5		reduction by Gox0644 (result in words) (Gox0644): not reduced
CC(C)=O [acetone]			reduction by Gox0644 (result in words) (Gox0644): not reduced
CC(=O)CC(C)=O [acetylacetone]			reduction by Gox0644 (result in words) (Gox0644): not reduced
O=Cc1ccccc1 [benzaldehyde]	9.4	12.2	
O=C(C(=O)c1ccccc1)c1ccccc1 [benzil]	0.1		Specific Activity (Gox0644): 14.0 U/mg
CCCC=O [butyraldehyde]	8.5	14	
CCCCCCCCCC=O [decanal]	18.8	10.5	
CCCCCCCCCCCC=O [dodecanal]	2.4	15.6	
O=CCCCC=O [glutaraldehyde]		13.5	
O=CCO [glycolaldehyde]	37.5	4.1	

Compound	Specific Activity (Gox0313) [U/mg]	Specific Activity (Gox1615) [U/mg]	also measured
O=CC=O [glyoxal]		5	Specific Activity (Gox0644): 1.1 U/mg
O=CC(=O)O [glyoxalate]			Specific Activity (Gox0644): 1.2 U/mg
CCCCCCC=O [heptanal]	8.6	15.5	
CCCCCC=O [hexanal]	6.0	10.3	
CC(C)CC=O [isovaleraldehyde]		12	
Cc1cccc(C=O)c1 [m-toluylaldehyde]		1.5	
Cc1ccccc1C=O [o-toluylaldehyde]		0.8	
CCCCCCCC=O [octanal]	1.5	5.3	
Cc1ccc(C=O)cc1 [p-toluylaldehyde]	3.3	2.3	
O=CCc1ccccc1 [phenylacetaldehyde]		6.5	
CCC=O [propionaldehyde]	15.0	8.4	
CCCCCCCCCCC=O [undecylaldehyde]	8.5	7.5	
CCCCC=O [valeraldehyde]	8.9	15.1	
glucose	4.7		
mannose	9.7		
